Patent publication US20140038289A1, “NONADHESIVE SPHERE CELL CULTURE CONTAINER, SYSTEM, AND METHOD” (NATIONAL DEFENSE MEDICAL CENTER, priority 2012, published 2014)

Legend:
Type in all cases: cell-based
[1] = system: human tongue cancer cell line SAS; test: Chemosensitivity assay (MTS), SAS parental cells and spheres; conditions: Cisplatin doses up to 200 μM for 48 hours, FIG. 4(B)
Protocol: (§1) Cells were seeding in 10-cm cell culture dish at a density of 1×10^6 cells/dish. For the chemosensitivity assay, cells were treated with 10 to 200 μM Cisplatin (Sigma, St Louis, Mo., U.S.A.) for 48 hours. For the radiosensitivity assay, cells were irradiated using a CyberKnife® radiosurgery system (Accuray, Sunnyvale, Calif., U.S.A.) to deliver different doses (2-10 Gy). Relative survival fraction of cells was determined by MTS assay using the CellTiter® 96 Aqueous One Solution Cell Proliferation Assay kit (Promega, Madison, Wis., U.S.A.) after 36 hours of radiation treatment. Please refer to FIG. 4(A), which depicts the survival (%) of SAS and OECM-1 parental cells and their spheres after radiation treatment, and cell viability was evaluated after these cells were treated with radiation doses up to 10 Gy for 36 hours and were subject to a MTS assay. In FIG. 4(A), SAS and OECM-1 spheres were more radioresistant than their parental cells. Please refer to FIG. 4(B), which depicts the survival (%) of SAS and OECM-1 parental cells and their spheres after the Cisplatin treatment, and cell viability was evaluated after these cells were treated with Cisplatin doses up to 200 μM for 48 hours and were subject to a MTS (3-(4,5-dimethylthiazol-2-yl)-5-(3-carboxymethoxyphenyl)-2-(4-sulfophenyl)-2H-tetrazolium) assay.

[2] = system: human oral squamous carcinoma cell line OECM-1; test: Chemosensitivity assay (MTS), OECM-1 parental cells and spheres; conditions: Cisplatin doses up to 200 μM for 48 hours, FIG. 4(B)
Protocol: as §1

[3] = system: human tongue cancer cell line SAS; test: Combined chemo- and radiotherapy (CCRT) treatment, SAS parental cells and spheres; conditions: 20 μM Cisplatin for 24 hours followed by radiotherapy, FIG. 4(C)
Protocol: (§2) Cells were seeding in 10-cm cell culture dish at a density of 1×10^6 cells/dish. For the chemosensitivity assay, cells were treated with 10 to 200 μM Cisplatin (Sigma, St Louis, Mo., U.S.A.) for 48 hours. For the radiosensitivity assay, cells were irradiated using a CyberKnife® radiosurgery system (Accuray, Sunnyvale, Calif., U.S.A.) to deliver different doses (2-10 Gy). Relative survival fraction of cells was determined by MTS assay using the CellTiter® 96 Aqueous One Solution Cell Proliferation Assay kit (Promega, Madison, Wis., U.S.A.) after 36 hours of radiation treatment. To imitate the clinical condition, a combined chemo- and radiotherapy (CCRT) treatment was administered on SAS and OECM-1 parental cells and their spheres. Please refer to FIG. 4(C), which depicts the survival (%) of SAS and OECM-1 parental cells and their spheres after Cisplatin treatment followed by radiation treatment. This assay was performed by treating cells with chemotherapy using 20 μM Cisplatin for 24 hours followed by radiotherapy. […] Please refer to FIG. 4(D), which depicts the survival (%) of SAS and OECM-1 parental cells and their spheres after radiation treatment followed by Cisplatin treatment. […]

[4] = system: human oral squamous carcinoma cell line OECM-1; test: Combined chemo- and radiotherapy (CCRT) treatment, OECM-1 parental cells and spheres; conditions: 20 μM Cisplatin for 24 hours followed by radiotherapy, FIG. 4(C)
Protocol: as §2

N.N.[Cl][Pt][Cl] [Cisplatin]
survival (%) after Cisplatin treatment, spheres vs parental cells [1]: spheres were more resistant to Cisplatin than their parental cells | survival (%) after Cisplatin treatment, spheres vs parental cells [2]: spheres were more resistant to Cisplatin than their parental cells | survival (%) after Cisplatin treatment followed by radiation treatment, vs single treatment [3]: more effective in reducing the survival rate of the parental cells and spheres compared with the single treatment | survival (%) after Cisplatin treatment followed by radiation treatment, vs single treatment [4]: more effective in reducing the survival rate of the parental cells and spheres compared with the single treatment
